PMC2679150 (Science (New York, N.Y.), 2009)

Molecular target: T1, BlaC β-lactamase (Mycobacterium tuberculosis, UniProt P9WKD3)
T1 sequence (P9WKD3 35-307): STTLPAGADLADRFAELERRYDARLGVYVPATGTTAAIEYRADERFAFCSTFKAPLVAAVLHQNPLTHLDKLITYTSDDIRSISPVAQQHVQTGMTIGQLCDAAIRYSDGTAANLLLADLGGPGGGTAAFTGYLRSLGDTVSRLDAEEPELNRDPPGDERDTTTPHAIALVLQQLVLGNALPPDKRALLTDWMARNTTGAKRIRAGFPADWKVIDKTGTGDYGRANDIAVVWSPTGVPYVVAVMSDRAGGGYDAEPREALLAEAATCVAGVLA
Assay: biochemical

SMILES: C[C@@H](O)[C@H]1C(=O)N2C(C(=O)O)=C(S[C@@H]3CN[C@H](C(=O)N(C)C)C3)[C@H](C)[C@H]12 [meropenem]
- Ki: 1.1 ± 0.8 µM
